From patent US11185542B2, “Uses of dopamine beta-hydroxylase (DBH) inhibitors and serotonin receptor (5-HT) antagonists for the treatment of cancer” (Jiangsu Yahong Meditech Co., Ltd., priority 2016, dated 2021)
Several values for one entry are separate records, joined by “and”; a condition that tells them apart may be missing. Identical values can stand only once.

Key:
[1] = system: H22 murine hepatocarcinoma cell line; assay: In vitro cell proliferation assay (CellTiter-Glo) in H22 murine hepatocarcinoma cell line; assay type: cell-based
Method: Methods: • (1) Cells were cultured in RPMI-1640 medium supplemented with 10% FBS, 100 U/ml penicillin, and […] streptomycin at 37° C. and 5% CO2 atmosphere. […] The anti-proliferative activity of amperozide, nepicastat, and paclitaxel was tested in the H22 murine hepatocarcinoma cell line according to the experimental procedure described in Example 1.

[2] = system: H22 murine hepatic cancer xenograft; assay: In vivo tumor growth, H22 murine hepatic cancer xenograft model, compared with anti-PD-1 mAb (Example 5); set-up: species or system Mouse (Mus Musculus); conditions: p.o.; for Tumor Volume (mm^3): QD x 20 days; for T/C (%) / TGI (%) tumor growth inhibition: QD
Method: (§1) Experiments using the murine H22, CT-26 and EMT-6 xenograft models were performed as described below.
(§2) Cells were cultured in RPMI-1640 medium supplemented with 10% FBS at 37° C. in an atmosphere of 5% CO2 in air. The tumor cells were routinely subcultured three times weekly. The cells that grew in an exponential growth phase were harvested and counted for tumor inoculation.
(§3) Mice (female, 6-8 weeks old) were inoculated subcutaneously at the right flank with the tumor cells (H22, EMT-6, or CT-26) in 0.1 mL PBS for tumor development. When the tumor volume reached approximately 60-80 mm^3, the mice were grouped randomly according to the animal body weight and tumor volume. Each group had 5-8 tumor-bearing mice.
(§4) The major endpoint was to determine if tumor growth could be delayed or mice could be cured. Tumor volume was measured three times weekly in two dimensions using a caliper, and the volume was expressed in mm^3 using the formula: V=0.5 a×b^2, where a and b are the long and short diameters of the tumor, respectively. The T/C value (in percent) was an indication of antitumor effectiveness, where T and C were the mean volume of the treated and control groups, respectively, on a given day. The T-C value was calculated according to TV. T-C was calculated with T as the median time (in days) required for the treatment group tumors to reach a predetermined size (e.g., TV as 1000 mm^3), and C as the median time (in days) for the control group tumors to reach the same size. The body weights were measured and recorded at the same time to observe the toxicity of the compounds. The animals were sacrificed at the termination of the study.
(§5) Summary statistics, including mean and the standard error of the mean (SEM), are provided for the tumor volume of each group at each time point. A two-way analysis of variance (ANOVA) was performed to compare body weight, tumor volume and tumor volume change. A one-way ANOVA was performed to compare tumor weight. All data were analyzed using GraphPad Prism 5. p<0.05 was considered to be statistically significant.
The anti-cancer activity of nepicastat, etamicastat and anti-PD-1 monoclonal antibody (mAb) was evaluated in a H22 murine hepatic cancer xenograft model according to the experimental procedure described in Example 2.

[3] = system: CT-26 murine colon cancer xenograft; assay: In vivo tumor growth, CT-26 murine colon cancer xenograft model (Example 6); set-up: species or system Mouse (Mus Musculus); conditions: Nepicastat 50 mg/kg, QD, oral
Method: as §1, §2, §3, §4, §5
(§6) Nepicastat was also tested for in vivo tumor growth inhibition in CT-26 murine colon cancer and EMT-6 murine breast cancer xenograft models. Nepicastat was administered orally.

[4] = system: H22 murine hepatic cancer xenograft; assay: In vivo tumor growth, H22 murine hepatic cancer xenograft model (Example 4); set-up: species or system Mouse (Mus Musculus)
Method: as §1, §2, §3, §4, §5
The anti-cancer activity of amperozide and nepicastat was evaluated in a H22 murine hepatic cancer xenograft model according to the experimental procedure described in Example 2. Anti-cancer activity was evaluated by measuring changes in tumor volume.

[5] = clinical dosage of nepicastat 160 mg/day; read-out: plasma maximal concentration (Cmax); cited from earlier work
[6] = system: EMT-6 murine breast cancer xenograft; assay: In vivo tumor growth, EMT-6 murine breast cancer xenograft model (Example 6); set-up: species or system Mouse (Mus Musculus); conditions: Nepicastat 50 mg/kg, QD, oral
Method: as §1, §2, §3, §4, §5, §6

[7] = Nepicastat 48 mg/kg, day 19, listed as nepicastat

IC50 ([1]; Mus musculus, calculated from FIG. 1, read-out: IC50 in H22 murine hepatocarcinoma cells proliferation): 52.6 µM
Structure (SMILES): NCc1c[nH]c(=S)n1[C@H]1CCc2c(F)cc(F)cc2C1 [Nepicastat, nepicastat]
Cell viability (%) ([1]; 0.1 μM, 72 h, H22 cells): 103.2%
anti-proliferative effect on H22 cell line ([1]; 1 μM and 0.1, in words): did not show any significant anti-proliferative effects
viability at 0.1 µM ([1]; Mus musculus, H22, 72 h, 0.1 μM, 72 h, H22 cells, read-out: Cell viability (%)): 102%
viability at 1 µM ([1]; Mus musculus, H22, 72 h, 1 μM, 72 h, H22 cells, read-out: Cell viability (%)): 94.4%
Tumor Volume (mm^3) ([2]; Nepicastat 50 mg/kg, day 3): 56.45 ± 4.42 mm^3
Tumor Volume (mm^3) ([2]; Nepicastat 50 mg/kg, day 6): 107.64 ± 2.13 mm^3
Tumor Volume (mm^3) ([2]; Nepicastat 50 mg/kg, day 9): 212.98 ± 15.54 mm^3
Tumor Volume (mm^3) ([2]; Nepicastat 50 mg/kg, day 13): 369.64 ± 18.63 mm^3
Tumor Volume (mm^3) ([2]; Nepicastat 50 mg/kg, day 16): 552.37 ± 34.69 mm^3
Tumor Volume (mm^3) ([2]; Nepicastat 50 mg/kg, day 19): 677.68 ± 29.38 mm^3
Tumor Volume (mm^3) ([2]; Nepicastat 50 mg/kg, day 22): 880.28 ± 33.41 mm^3
Tumor Volume (mm^3) ([2]; Nepicastat 50 mg/kg, day 22, listed as nepicastat): 880.28 mm^3
T/C (%) ([2]; Nepicastat 50 mg/kg, day 22): 51.21%
TGI (%) tumor growth inhibition ([2]; Nepicastat 50 mg/kg, day 22): 48.79%
Tumor Volume (mm^3) ([2]; Nepicastat 100 mg/kg, day 3): 56.41 ± 3.96 mm^3
Tumor Volume (mm^3) ([2]; Nepicastat 100 mg/kg, day 6): 120.60 ± 12.92 mm^3
Tumor Volume (mm^3) ([2]; Nepicastat 100 mg/kg, day 9): 238.00 ± 22.62 mm^3
Tumor Volume (mm^3) ([2]; Nepicastat 100 mg/kg, day 13): 384.72 ± 54.05 mm^3
Tumor Volume (mm^3) ([2]; Nepicastat 100 mg/kg, day 16): 658.54 ± 71.96 mm^3
Tumor Volume (mm^3) ([2]; Nepicastat 100 mg/kg, day 19): 1049.88 ± 145.91 mm^3
Tumor Volume (mm^3) ([2]; Nepicastat 100 mg/kg, day 22): 1275.47 ± 154.93 mm^3
Tumor Volume (mm^3) ([2]; Nepicastat 100 mg/kg, day 22, listed as nepicastat): 1275.47 mm^3
T/C (%) ([2]; Nepicastat 100 mg/kg, day 22): 74.20%
TGI (%) tumor growth inhibition ([2]; Nepicastat 100 mg/kg, day 22): 25.80%
T/C (%) ([3]; CT-26 model, End): 65.70%
TGI (%) tumor growth inhibition ([3]; CT-26 model, End): 34.30%
Tumor Volume (mm^3) in CT-26 Model ([3]; day 7 (Initiation)): 59.35 ± 1.65 mm^3 and 59.35 ± 3.69 mm^3
Tumor Volume (mm^3) in CT-26 Model ([3]; day 10): 86.00 ± 11.91 mm^3
Tumor Volume (mm^3) in CT-26 Model ([3]; day 14): 314.14 ± 33.19 mm^3
Tumor Volume (mm^3) in CT-26 Model ([3]; day 17): 501.46 ± 50.04 mm^3
Tumor Volume (mm^3) in CT-26 Model ([3]; day 21 (End)): 1087.75 ± 163.63 mm^3
T-C (days) (Reach 1000 mm^3) ([4]; Nepicastat 16 mg/kg): 1 days
Tumor Volume ([4]; Nepicastat 16 mg/kg, day 5): 80 ± 6 mm^3
Tumor Volume ([4]; Nepicastat 16 mg/kg, day 7): 140 ± 13 mm^3
Tumor Volume ([4]; Nepicastat 16 mg/kg, day 9): 260 ± 25 mm^3
Tumor Volume ([4]; Nepicastat 16 mg/kg, day 12): 542 ± 75 mm^3
Tumor Volume ([4]; Nepicastat 16 mg/kg, day 14): 982 ± 111 mm^3
Tumor Volume ([4]; Nepicastat 16 mg/kg, day 16): 1,454 ± 173 mm^3
T/C (%) ([4]; Nepicastat 16 mg/kg, day 19): 84.1%
TGI (%) tumor growth inhibition ([4]; Nepicastat 16 mg/kg, day 19): 15.9%
Tumor Volume ([4]; Nepicastat 16 mg/kg, day 19): 2,546 ± 306 mm^3
T-C (days) (Reach 1000 mm^3) ([4]; Nepicastat 48 mg/kg): 2 days
Tumor Volume ([4]; Nepicastat 48 mg/kg, day 5): 80 ± 6 mm^3
Tumor Volume ([4]; Nepicastat 48 mg/kg, day 7): 146 ± 12 mm^3
Tumor Volume ([4]; Nepicastat 48 mg/kg, day 9): 249 ± 26 mm^3
Tumor Volume ([4]; Nepicastat 48 mg/kg, day 12): 493 ± 74 mm^3
Tumor Volume ([4]; Nepicastat 48 mg/kg, day 14): 795 ± 129 mm^3
Tumor Volume ([4]; Nepicastat 48 mg/kg, day 16): 1,150 ± 188 mm^3
T/C (%) ([4]; Nepicastat 48 mg/kg, day 19): 65.8%
TGI (%) tumor growth inhibition ([4]; Nepicastat 48 mg/kg, day 19): 34.2%
Tumor Volume ([4]; Nepicastat 48 mg/kg, day 19): 1,992 ± 349 mm^3
T/C (%) [4, 7]: 66%
Tumor Volume [4, 7]: 1992 mm^3
Cmax [5]: ~200 nM
T/C (%) ([6]; EMT-6 model, End): 76.91%
TGI (%) tumor growth inhibition ([6]; EMT-6 model, End): 23.09%
Tumor Volume (mm^3) in EMT-6 Model ([6]; day 5 (Initiation)): 61.55 ± 1.37 mm^3 and 61.55 ± 3.06 mm^3
Tumor Volume (mm^3) in EMT-6 Model ([6]; day 8): 110.11 ± 2.13 mm^3
Tumor Volume (mm^3) in EMT-6 Model ([6]; day 12): 229.32 ± 21.67 mm^3
Tumor Volume (mm^3) in EMT-6 Model ([6]; day 15): 385.24 ± 66.33 mm^3
Tumor Volume (mm^3) in EMT-6 Model ([6]; day 19 (End)): 697.23 ± 35.90 mm^3
